Laboratory results published in US20240174690A1, “ANNULATED 2-AMINO-3-CYANO THIOPHENES AND DERIVATIVES FOR THE TREATMENT OF CANCER” (BOEHRINGER INGELHEIM INTERNATIONAL GMBH, priority 2021, published 2024).
≈ marks a conversion by molar mass, not a printed value. Like-named read-outs stand apart in the source and are kept apart here.

Experiments:
[1] = test system: KRAS G12V-dependent Ba/F3 cells; experiment: Ba/F3 proliferation assay, KRAS G12V; type: cell-based; conditions: Mus musculus, BaF3, 72 h, AlamarBlue;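 further: proliferation IC50 in KRAS G12V-dependent Ba/F3 cells read by AlamarBlue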
In short: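 IL-3-independent Ba/F3 lines carrying retrovirally introduced KRAS G12C, G12D or G12V; puromycin withdrawn ~10 days before assay. Duplicate treatments, AlamarBlue fluorescence readout, curve-fit analysis.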

[2] = test system: AsPC-1 cells; experiment: AsPC-1 CTG proliferation assay (120 h) (pancreatic cancer, G12D); type: cell-based; conditions: Homo sapiens, ASPC1
In short: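 CellTiter-Glo luminescence, normalised to DMSO wells, measured viability after 120 h compound exposure. Cells were AsPC-1 pancreatic cancer (G12D) plated at 2000 per well in RPMI/10% FCS the day before dosing. IC50 derived by four-parameter regression.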

[3] = test system: SAS cells; experiment: SAS CTG proliferation assay (120 h) (HNSCC, wt amplified); type: cell-based
In short: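 Viability measured by CellTiter-Glo luminescence, normalized to DMSO wells, after 120 h compound treatment of SAS cells. Cells grown in DMEM:F12 plus 10% FCS at 300 cells per well, dosed the day after seeding. Four-parameter fit gives IC50.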

[4] = test system: LOVO cells; experiment: LOVO CTG proliferation assay (120 h) (CRC, G13D); type: cell-based; conditions: Homo sapiens, CTG 120 h
In short: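 IC50 comes from a four-parameter fit of CellTiter-Glo viability, expressed as RLU relative to DMSO wells. Compound exposure lasted 120 h in LOVO cells seeded the day before at 1000 cells/well in DMEM with 10% fetal calf serum.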

[5] = Solubility measurement (DMSO solution method), McIlvaine buffer pH 4.5 or 6.8; type: physicochemical; conditions: aqueous buffer, kinetic from dmso stock, DMSO stock diluted to 250 μM, 24 h shaking at ambient temperature
In short: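 Filtrate concentration by LC-UV, calibrated to a known-concentration reference dissolved completely in acetonitrile/water (1:1). Samples came from 250 µM final dilutions of DMSO stock in pH 4.5 or 6.8 McIlvaine buffer, shaken 24 h at ambient temperature, then filtered.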

[6] = McIlvaine buffer pH 4.5, read-out: solubility pH 4.5
[7] = McIlvaine buffer pH 6.8, read-out: solubility pH 6.8

| SMILES | IC50 [1] | IC50 [2] | IC50 [4] | solubility at 24 h [5, 6] | solubility at 24 h [5, 7] | IC50 [3] |
| --- | --- | --- | --- | --- | --- | --- |
| C[C@H](Oc1nc(-c2noc3c2CCC[C@@]32CCCc3sc(N)c(C#N)c32)nc(N2CCN(C)C3(CC3)C2)c1Cl)[C@@H]1C[C@@H](F)CN1C [II-176] | 1210 nM | 851 nM | 2680 nM | > 140 µg/mL | < 1 µg/mL | 4940 nM |
| CO[C@H]1CCN(C)[C@@H]1[C@H](C)Oc1cc(N2CCN(C)C3(CC3)C2)nc(-c2noc3c2CCC[C@@]32CCCc3sc(N)c(C#N)c32)n1 [II-186] | 321 nM | 38 nM | 357 nM | > 140 µg/mL | 22 µg/mL (≈ 34.1 µM) | 532 nM |
| C[C@H](Oc1cc(N2Cc3cnn(C)c3C2)nc(-c2onc3c2CCC[C@@]32CCCc3sc(N)c(C#N)c32)n1)[C@@H]1CCCN1C [I-19] | 23 nM | 3000 nM | 479 nM | 48 µg/mL (≈ 78.5 µM) | 14 µg/mL (≈ 22.9 µM) | 217 nM |
| C[C@H](Oc1cc(-n2cc3c(n2)CNC3)nc(-c2noc3c2CCC[C@@]32CCCc3sc(N)c(C#N)c32)n1)[C@@H]1C[C@@H](F)CN1C [II-154] | 135 nM | 1010 nM | 904 nM | > 144 µg/mL | 17 µg/mL (≈ 27.6 µM) | 747 nM |
| CC(C)N1CCCN(c2cc(-c3ccn(C)n3)nc(-c3noc4c3CCC[C@@]43CCCc4sc(N)c(C#N)c43)n2)[C@@H](C)C1 [II-170] | 17 nM | 3590 nM | 270 nM | 118 µg/mL (≈ 197 µM) | 24 µg/mL (≈ 40.1 µM) | 1050 nM |
| C[C@H]1CNCCCN1c1cc(-n2ccnc2)nc(-c2noc3c2CCC[C@@]32CCCc3sc(N)c(C#N)c32)n1 [II-142] | 1770 nM | 10100 nM | 2640 nM | 86 µg/mL (≈ 159 µM) | 10 µg/mL (≈ 18.5 µM) | 6110 nM |
| C[C@H](Oc1cc(N2CCN(C)C3(CC3)C2)nc(-c2noc3c2CCC[C@@]32CCCc3sc(N)c(C#N)c32)n1)[C@@H]1CCCN1C [II-171] | 426 nM | 295 nM | 593 nM | > 150 µg/mL | > 148 µg/mL | 1100 nM |
| COc1c(O[C@@H](C)[C@@H]2CCCN2C)nc(-c2noc3c2CCC[C@@]32CCCc3sc(N)c(C#N)c32)nc1-n1ccc(C(N)=O)n1 [II-159] | 93 nM | 1890 nM | 356 nM | 125 µg/mL (≈ 198 µM) | 125 µg/mL (≈ 198 µM) | 70 nM |
| C[C@@H]1CN(c2nc(-c3noc4c3CCC[C@@]43CCCc4sc(N)c(C#N)c43)nc(O[C@@H](C)[C@@H]3C[C@@H](F)CN3C)c2F)CC2(CC2)N1 [II-158] | 108 nM | 256 nM | 84 nM | > 150 µg/mL | < 1 µg/mL | 585 nM |
| CO[C@H]1CCN(C)[C@@H]1[C@H](C)Oc1cc(N2CCNC3(CC3)C2)nc(-c2noc3c2CCC[C@@]32CCCc3sc(N)c(C#N)c32)n1 [II-184] | 155 nM | 8 nM | 325 nM | > 158 µg/mL | > 147 µg/mL | 882 nM |
| CO[C@@H]1C[C@@H]([C@H](C)Oc2cc(N3CCNC4(CC4)C3)nc(-c3noc4c3CCC[C@@]43CCCc4sc(N)c(C#N)c43)n2)N(C)C1 [II-187] | 225 nM | 30 nM | 429 nM | > 140 µg/mL | 119 µg/mL (≈ 189 µM) | 1150 nM |
| C[C@H](Oc1cc(-n2cc3c(n2)CN(C)C3)nc(-c2noc3c2CCC[C@@]32CCCc3sc(N)c(C#N)c32)n1)[C@@H]1CCCN1C [II-174] | 71 nM | 103 nM | 139 nM | > 149 µg/mL | 115 µg/mL (≈ 188 µM) | 248 nM |
| C[C@H](Oc1nc(-c2noc3c2CCC[C@@]32CCCc3sc(N)c(C#N)c32)nc(N2CCNC3(CC3)C2)c1Cl)[C@@H]1C[C@@H](F)CN1C [II-156] | 271 nM | 86 nM | 226 nM | > 142 µg/mL | < 1 µg/mL | 440 nM |

Stronger by IC50 [1], values ahead:

| IC50 [1] | IC50 [2] | IC50 [4] | solubility at 24 h [5, 6] | solubility at 24 h [5, 7] | SMILES | IC50 [3] |
| --- | --- | --- | --- | --- | --- | --- |
| 3 nM | 297 nM | 40 nM | 20 µg/mL (≈ 28.8 µM) | 4 µg/mL (≈ 5.77 µM) | C[C@H](Oc1cc(-n2ccc(-c3cn([C@@H]4CCOC4)nn3)n2)nc(-c2noc3c2CCC[C@@]32CCCc3sc(N)c(C#N)c32)n1)[C@@H]1CCCN1C [II-211] | 17 nM |
| 16 nM | 1370 nM | 97 nM | < 1 µg/mL | < 1 µg/mL | C[C@H](Oc1cc(-n2cc(-c3cncs3)nn2)nc(-c2noc3c2CCC[C@@]32CCCc3sc(N)c(C#N)c32)n1)[C@@H]1CCCN1C [II-125] | 182 nM |
| 9 nM | 2080 nM | 69 nM | > 130 µg/mL | 15 µg/mL (≈ 23.4 µM) | C[C@H](Oc1cc(-c2ccn(C[C@H]3CCOC3)n2)nc(-c2noc3c2CCC[C@@]32CCCc3sc(N)c(C#N)c32)n1)[C@@H]1CCCN1C [II-129] | 18 nM |
| 6 nM | 1080 nM | 190 nM | < 1 µg/mL | < 1 µg/mL | C[C@H](Oc1cc(-n2ccc(-c3cnccn3)n2)nc(-c2noc3c2CCC[C@@]32CCCc3sc(N)c(C#N)c32)n1)[C@@H]1CCCN1C [II-130] | 176 nM |
| 1 nM | 651 nM | 33 nM | > 128 µg/mL | 6 µg/mL (≈ 9.53 µM) | CO[C@H]1CCN(C)[C@@H]1[C@H](C)Oc1cc(-n2ccc(C(N)=O)n2)nc(-c2noc3c2CCC[C@@]32CCCc3sc(N)c(C#N)c32)n1 [II-201] | 20 nM |
| 8 nM | 7070 nM | 260 nM | > 121 µg/mL | 91 µg/mL (≈ 163 µM) | C[C@H](Oc1cc(-n2cncn2)nc(-c2onc3c2CCC[C@@]32CCCc3sc(N)c(C#N)c32)n1)[C@@H]1CCCN1C [I-18] | 72 nM |
| 2 nM | 305 nM | 32 nM | 124 µg/mL (≈ 185 µM) | 59 µg/mL (≈ 88.1 µM) | C[C@H](Oc1cc(-n2ccc(C(=O)N[C@@H]3CCOC3)n2)nc(-c2noc3c2CCC[C@@]32CCCc3sc(N)c(C#N)c32)n1)[C@@H]1CCCN1C [II-192] | 25 nM |
| 6 nM | 5110 nM | 120 nM | 117 µg/mL (≈ 186 µM) | 100 µg/mL (≈ 159 µM) | C[C@H](Oc1cc(-n2cc(C(=O)N(C)C)nn2)nc(-c2noc3c2CCC[C@@]32CCCc3sc(N)c(C#N)c32)n1)[C@@H]1CCCN1C [II-132] | 319 nM |
| 1 nM | 248 nM | 15 nM | 94 µg/mL (≈ 128 µM) | < 1 µg/mL | CO[C@H]1CCN(C)[C@@H]1[C@H](C)Oc1cc(-n2ccc(C(=O)N[C@@H](C)c3ccccn3)n2)nc(-c2noc3c2CCC[C@@]32CCCc3sc(N)c(C#N)c32)n1 [II-196] | 9 nM |
| 3 nM | 188 nM | 38 nM | > 148 µg/mL | 86 µg/mL (≈ 131 µM) | CC(C)NC(=O)Cc1ccn(-c2cc(O[C@@H](C)[C@@H]3CCCN3C)nc(-c3noc4c3CCC[C@@]43CCCc4sc(N)c(C#N)c43)n2)n1 [II-182] | 32 nM |
| 4 nM | 483 nM | 70 nM | > 159 µg/mL | 65 µg/mL (≈ 93.7 µM) | C[C@H](Oc1cc(-n2cc3ccn([C@@H]4CCOC4)c(=O)c3n2)nc(-c2noc3c2CCC[C@@]32CCCc3sc(N)c(C#N)c32)n1)[C@@H]1CCCN1C [II-203] | 18 nM |
| 2 nM | 1510 nM | 96 nM | > 123 µg/mL | 91 µg/mL (≈ 158 µM) | C[C@H](Oc1cc(N2CCOC2=O)nc(-c2noc3c2CCC[C@@]32CCCc3sc(N)c(C#N)c32)n1)[C@@H]1CCCN1C [II-143] | 48 nM |
| 7 nM | 3410 nM | 1350 nM | 41 µg/mL (≈ 67.5 µM) | < 1 µg/mL | C[C@H](Oc1cc(-n2cncc3ccnc2-3)nc(-c2onc3c2CCC[C@@]32CCCc3sc(N)c(C#N)c32)n1)[C@@H]1CCCN1C [I-14] | 25 nM |
| 1 nM | 143 nM | 25 nM | 12 µg/mL (≈ 17.1 µM) | < 1 µg/mL | CO[C@H]1CCN(C)[C@@H]1[C@H](C)Oc1cc(-n2ccc(C(=O)N[C@H]3CCOC3)n2)nc(-c2noc3c2CCC[C@@]32CCCc3sc(N)c(C#N)c32)n1 [II-198] | 8 nM |
| 2 nM | 210 nM | 35 nM | 5 µg/mL (≈ 7.06 µM) | < 1 µg/mL | C[C@H](Oc1cc(-n2ccc(-c3cn(C4CCOCC4)nn3)n2)nc(-c2noc3c2CCC[C@@]32CCCc3sc(N)c(C#N)c32)n1)[C@@H]1CCCN1C [II-210] | 14 nM |
